Conditions: for mass density: Vibrating tube method

FC(F)(F)C(F)(F)C(F)(F)F [octafluoropropane]
speed of sound [m/s], Gas, sonar gas analyzer
Conditions	248.2 K	259.8 K	270.2 K	272.6 K	283.2 K	296.1 K	303.9 K
10 kPa	107.9	–	112.31	–	–	–	119.13
20 kPa	107.6	110	111.99	–	114.63	–	118.98
30 kPa	107.25	109.59	111.77	–	114.12	–	118.79
50 kPa	106.56	108.88	111.27	–	113.84	116.81	118.42
70 kPa	105.77	108.23	110.9	–	113.1	116.31	118.04
100 kPa	104.62	107.27	–	110.29	112.46	115.55	117.43
150 kPa	102.76	105.51	–	108.59	111.28	114.42	116.26
200 kPa	–	103.72	–	106.9	109.88	113.23	115.36
250 kPa	–	101.83	–	105.22	108.56	111.94	114.31
300 kPa	–	–	–	103.59	107.1	110.7	113.14
350 kPa	–	–	–	101.9	105.61	109.43	112
400 kPa	–	–	–	100.27	103.99	108.12	110.63

FC(F)(F)C(F)(F)C(F)(F)C(F)(F)C(F)(F)C(F)(F)C(F)(F)C(F)(F)F [octadecafluorooctane]
101.33 kPa, Liquid
Conditions	mass density [kg/m3]
278.15 K	1810
288.15 K	1786.7
298.15 K	1760.6
308.15 K	1735
318.15 K	1708.6
328.15 K	1681.6
338.15 K	1656.4

101.33 kPa, Liquid, sound analyzer
Conditions	speed of sound [m/s]
278.15 K	640.32
288.15 K	610.05
298.15 K	581.94
308.15 K	552.33
318.15 K	524.1
328.15 K	508.43
338.15 K	479.24

FC(F)(F)C(F)(F)C(F)(F)C(F)(F)C(F)(F)C(F)(F)C(F)(F)F [hexadecafluoroheptane]
101.33 kPa, Liquid
Conditions	mass density [kg/m3]
278.15 K	1769.3
288.15 K	1751
298.15 K	1728.4
308.15 K	1700.8
318.15 K	1672.7
328.15 K	1641.9
333.15 K	1629.4

101.33 kPa, Liquid, sound analyzer
Conditions	speed of sound [m/s]
278.15 K	608.3
288.15 K	578.42
298.15 K	548.73
308.15 K	517.47
318.15 K	500.56
328.15 K	470.6
333.15 K	457.24

FC(F)(F)C(F)(F)C(F)(F)C(F)(F)F [decafluorobutane]
speed of sound [m/s], Gas, sonar gas analyzer
Conditions	10 kPa	20 kPa	30 kPa	50 kPa	70 kPa	100 kPa	150 kPa	200 kPa	250 kPa	300 kPa
248.7 K	95.1	94.56	93.98	–	–	–	–	–	–	–
257.7 K	96.57	96.22	95.7	94.78	–	–	–	–	–	–
271.3 K	99.26	98.71	98.33	97.39	96.39	94.79	–	–	–	–
281.5 K	101.05	100.64	100.23	99.38	98.4	97.04	95.08	–	–	–
293.1 K	103.02	102.7	102.37	101.71	100.86	99.66	97.68	95.63	–	–
303.1 K	104.78	104.57	104.25	103.35	103.06	103.05	99.91	98.41	96.5	94.89

FC(F)(F)C(F)(F)C(F)(F)C(F)(F)C(F)(F)C(F)(F)F [perfluorohexane]
101.33 kPa, Liquid
Conditions	mass density [kg/m3]
278.15 K	1739.8
288.15 K	1712.7
298.15 K	1682.8
308.15 K	1651.9

101.33 kPa, Liquid, sound analyzer
Conditions	speed of sound [m/s]
278.15 K	571.89
288.15 K	540.31
298.15 K	510.7

Source: the NIST ThermoML archive (doi:10.1016/j.fluid.2010.01.027)
